From paper PMC5431875, “In situ click chemistry generation of cyclooxygenase-2 inhibitors” (Nature Communications, 2017)

How the values were obtained:
[1] = target: T1, COX-2 in HCA-7 cells (Homo sapiens, UniProt P35354); experiment: Cellular COX-2 inhibitory activity (PGE2 ELISA) in HCA-7 cells; format: cell-based; conditions: mean of three determinations, read-out: Cell COX-2 IC50
T1 construct: endogenous in cells; host or cells: HCA-7
T1 sequence (P35354 18-604): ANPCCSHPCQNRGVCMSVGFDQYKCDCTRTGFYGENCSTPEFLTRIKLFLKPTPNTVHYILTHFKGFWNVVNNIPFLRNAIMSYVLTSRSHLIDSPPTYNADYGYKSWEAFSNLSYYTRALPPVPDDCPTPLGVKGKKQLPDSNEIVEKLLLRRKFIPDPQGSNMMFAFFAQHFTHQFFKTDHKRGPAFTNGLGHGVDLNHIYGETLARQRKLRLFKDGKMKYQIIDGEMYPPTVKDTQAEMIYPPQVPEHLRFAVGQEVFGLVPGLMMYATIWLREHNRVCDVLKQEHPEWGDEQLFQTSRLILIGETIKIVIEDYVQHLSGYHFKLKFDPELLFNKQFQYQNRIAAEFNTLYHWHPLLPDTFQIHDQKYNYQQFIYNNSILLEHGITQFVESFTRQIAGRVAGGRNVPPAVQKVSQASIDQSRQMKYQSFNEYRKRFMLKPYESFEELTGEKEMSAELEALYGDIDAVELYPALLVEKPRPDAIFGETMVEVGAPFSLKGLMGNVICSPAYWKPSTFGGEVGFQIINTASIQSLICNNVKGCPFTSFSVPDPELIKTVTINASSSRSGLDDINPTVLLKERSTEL
Protocol: Based on the in vitro COX-2 inhibitory data, seventeen compounds (Table 2) were selected and further evaluated for their cellular COX-2 inhibitory activity in COX-2 expressing colorectal cancer cell line HCA-7. […]
HCA-7 cells (colorectal cancer cell line, COX-2 expression is confirmed with immunoblotting). The HCA-7 cells were cultured in T75 flasks using DMEM/F12 (1:1) medium supplemented with 10% (v/v) fetal bovine […]
were washed three times for 5 min with 1 ml PBS. Cells were negatively tested for mycoplasma contamination either by the vendor or in house. […]
vehicle (solvent) at concentration range of 10−9 M to 10−3 M. After 30 min incubation the reaction was stopped on ice and supernatants were taken and COX-2 mediated production of PGE2 was immediately determined […]
concentration is quantified by following manufacturer assay procedure. All experiments were done three times and ±s.e.m. were calculated.
The PRISM5 software was used to calculate IC50 values.

[2] = target: T2, pure human COX-2 protein (Homo sapiens, UniProt P35354); experiment: Isothermal titration calorimetry; format: binding; conditions: ITC
T2 sequence (P35354 18-604): T1 sequence (P35354 18-604)
Protocol: The thermodynamics of the precursor 5-azido-pyrazole (14) binding with pure human COX-2 protein studied with a high sensitivity ITC instrument (VP-ITC, MicroCal). All titrations were performed by following VP-ITC general procedure described in manual. Protein (20 µM) and ligand (200 µM) solution were prepared in PBS buffer, pH 7.4. Prior to each ITC run, all solutions were filtered using membrane filters (pore size 0.45 μm) and thoroughly stirred and degassed using Thermovac accessory for 20 min to remove any air bubbles at 25 °C. In a typical experiment, aliquots (6 µl) of ligand solution (prepared at 10 times the COX-2 protein concentration) were injected with a computer-controlled stirrer-syringe into a reaction cell containing COX-2 protein. Titrations were carried out with a stirring speed of 400 rpm and 240 s intervals between injections. All experiments were conducted at 25 °C. Control experiments, including titration of the ligand into buffer alone or COX-2 protein into buffer alone, were carried to determine the heat due to dilution and subtracting during the original experiment. Calorimetric data analysis was performed with ORIGIN software provided by MicroCal. All results, including the binding constant (K a), stoichiometry of binding (N), and thermodynamics of binding (ΔH and TΔS) were determined by fitting the experimental binding isotherms.

[3] = Stability in human serum; format: in vitro ADME; conditions: 37 °C, up to 30 h
Protocol: Stock solutions of compounds 5, 14, 18 and 21 (10 mM) were prepared in DMSO for molecular biology. A Solution of each compound (10 mM) was added to freshly thaw human serum (from human male AB plasma, USA origin, sterile-filtered, Sigma– Aldrich) at 37 °C; the final concentration of the compound was 100 µM. The resulting solution was incubated at 37 °C and at various time intervals (0 to 30 h) 200 µL reaction mixture samples was taken and added to 200 µL of acetonitrile containing 0.1% trifluoroacetic acid in order to deproteinize the proteins. Into each sample mixture, 10 μL of an internal standard solution (2 mM solution in methanol) was added. Sample mixture was sonicated, vortexed and then centrifuged for 15 min. at 2150 × g. The clear supernatant was transferred into the fresh tube for LCMS analysis, with a similar method described for the in situ click LC-MS studies. […]

[4] = Stability in rat serum; format: in vitro ADME; conditions: 37 °C, up to 30 h
[5] = target: T3, recombinant human COX-2 (Homo sapiens, UniProt P35354); experiment: COX inhibitor assay (Cayman 700100), COX-2
T3 sequence (P35354 18-604): T1 sequence (P35354 18-604)
Protocol: (§1) Each compound was assayed in concentration range of 10^−9 M to 10^−3 M, in triplicate. PRISM5 software was used to calculate IC50 values.

[6] = target: T4, ovine COX-1 (Ovis aries, UniProt P05979); experiment: COX inhibitor assay (Cayman 700100), COX-1
T4 sequence (P05979 25-600): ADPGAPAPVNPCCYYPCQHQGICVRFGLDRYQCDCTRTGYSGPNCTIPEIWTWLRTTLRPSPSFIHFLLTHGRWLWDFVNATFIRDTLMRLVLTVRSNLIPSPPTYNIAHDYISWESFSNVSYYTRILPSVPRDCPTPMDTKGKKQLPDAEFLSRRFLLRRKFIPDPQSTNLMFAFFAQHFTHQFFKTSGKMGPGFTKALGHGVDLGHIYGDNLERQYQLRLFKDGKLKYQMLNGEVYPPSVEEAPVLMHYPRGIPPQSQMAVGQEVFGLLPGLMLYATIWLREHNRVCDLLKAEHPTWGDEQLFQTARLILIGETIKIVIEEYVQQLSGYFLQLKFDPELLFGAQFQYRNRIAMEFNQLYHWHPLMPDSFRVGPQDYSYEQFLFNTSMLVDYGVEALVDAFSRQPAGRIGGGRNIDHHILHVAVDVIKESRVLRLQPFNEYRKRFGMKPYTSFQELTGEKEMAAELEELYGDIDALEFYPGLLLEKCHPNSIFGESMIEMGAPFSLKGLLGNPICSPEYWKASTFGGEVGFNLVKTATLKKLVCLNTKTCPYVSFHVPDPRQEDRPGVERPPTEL
Protocol: as §1

## Cc1cc(N=[N+]=[N-])n(-c2ccc(S(C)(=O)=O)cc2)n1 [Compound 14, 5-azido-1-(4-methanesulfonyl-phenyl)-3-methyl-1H-pyrazole]
[1]
  IC50: 10 µM
[2]; 298.15 K
  Enthalpy change, ΔH: -8.248 kcal/mol
  Entropy change, TΔS: 0.404 kcal/mol
  Free energy change, ΔG: -8.652 kcal/mol
[2]; PBS pH 7.4, 25 °C
  Binding stoichiometry, N: 1.02 ± 0.0259
[3]
  Stability in human serum: no significant degradation
[4]
  Stability in rat serum: no significant degradation
other
  melting point: 131 to 133 °C
[5]
  IC50: 4.4 µM
[5]; (COX-1 IC50)/(COX-2 IC50)
  COX-2 SI (selectivity index): >22.7
[6]
  IC50: > 100 µM
